From the NIST ThermoML archive (doi:10.1021/je500542j)
Where “and” joins values, the source holds several entries; their conditions need not be identical. Equal values may be shown once. ± gives the expanded uncertainty stated by the source.

Test: wn = mass fraction of the nth substance listed
Conditions: 101 kPa, Liquid, Vibrating tube method

O=C(O)c1ccccc1C(=O)O [1,2-benzenedicarboxylic acid] + CN1CCCC1=O
mass density (303.15 K, w1 = 0.158): 1037.8 ± 1 kg/m3 and 1038 ± 1 kg/m3
mass density (313.15 K, w1 = 0.187): 1042.8 ± 1.1 kg/m3

O=C(O)c1ccc(C(=O)O)cc1 [1,4-benzenedicarboxylic acid] + CN1CCCC1=O
mass density (303.15 K, w1 = 0.05896): 1029.5 ± 1 kg/m3
mass density (313.15 K, w1 = 0.08754): 1031.5 ± 1 kg/m3 and 1038.5 ± 1 kg/m3

O=C(O)c1cccc(C(=O)O)c1 [1,3-benzenedicarboxylic acid] + CN1CCCC1=O
mass density (303.15 K, w1 = 0.1624): 1036.1 ± 1 kg/m3
mass density (313.15 K, w1 = 0.1957): 1038.5 ± 7.6 kg/m3
